# Patent publication US20240425483A1, “INDOLINES AS PROTAC COMPOUNDS” (NeoPhore Limited, priority 2021, published 2024)
# Target: T1, PMS2 protein (Homo sapiens, UniProt P54278)
# T1 construct: host or cells: SW620 human colorectal carcinoma cells
# T1 sequence (P54278 1-862): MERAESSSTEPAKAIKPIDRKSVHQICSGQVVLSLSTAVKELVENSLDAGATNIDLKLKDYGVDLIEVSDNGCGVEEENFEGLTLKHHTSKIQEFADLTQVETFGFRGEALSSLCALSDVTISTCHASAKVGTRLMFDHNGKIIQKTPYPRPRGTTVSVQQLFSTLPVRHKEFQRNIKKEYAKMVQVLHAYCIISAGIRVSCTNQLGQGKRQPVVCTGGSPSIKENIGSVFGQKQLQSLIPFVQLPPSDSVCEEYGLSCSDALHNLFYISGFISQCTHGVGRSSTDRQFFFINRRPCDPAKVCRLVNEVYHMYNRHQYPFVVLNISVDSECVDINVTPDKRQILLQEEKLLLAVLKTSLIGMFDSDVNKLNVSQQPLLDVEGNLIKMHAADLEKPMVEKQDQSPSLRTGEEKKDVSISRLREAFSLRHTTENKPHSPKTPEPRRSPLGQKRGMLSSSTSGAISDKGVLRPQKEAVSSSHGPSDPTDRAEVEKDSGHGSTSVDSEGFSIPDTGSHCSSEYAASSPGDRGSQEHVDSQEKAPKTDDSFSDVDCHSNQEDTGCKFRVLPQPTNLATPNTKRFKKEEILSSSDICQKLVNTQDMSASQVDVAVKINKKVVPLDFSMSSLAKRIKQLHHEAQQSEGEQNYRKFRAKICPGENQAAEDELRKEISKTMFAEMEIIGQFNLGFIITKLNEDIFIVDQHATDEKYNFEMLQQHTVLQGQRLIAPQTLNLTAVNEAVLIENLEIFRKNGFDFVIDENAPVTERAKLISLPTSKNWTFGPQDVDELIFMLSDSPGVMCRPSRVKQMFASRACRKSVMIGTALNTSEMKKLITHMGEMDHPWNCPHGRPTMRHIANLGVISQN
# Test: PROTAC screening in SW620 human colorectal carcinoma cells, PMS2 protein level by JESS Western blot
# Format: cell-based
# Conditions: SW-620, 24 h, 1 uM compound, normalised to actin and DMSO control, Table A1
# Protocol: PROTAC Screening Protocol Using SW620 Human Colorectal Carcinoma Cells
# SVW620 cells (ATCC/[…]) were cultured in T75 Falcon flasks in culture media (F12/DMEM 1:1 media, 10% FCS, +L-G supplement). Cells were split twice a week, for a maximum of 6 weeks. Media was aspirated, and cells washed with 10 mL of sterile PBS. PBS was aspirated, and cells incubated with 1.5 mL TrypLE for up to 5 minutes at 37° C., 5% CO2. Once cells had detached, TrypLE was neutralised with 10 mL culture media and cells mixed 1:1 with Trypan blue and quantified using a Luna cell counter. Cells were then seeded into fresh T75 flasks with 1×10^6 cells and 10 mL culture media.
# SW620 cells, cultured and counted as above, were used to seed 12 well plates at a density of 1.5×10^5 cells/well and incubated overnight at 37° C., 5% CO2. Test compounds were solubilized in DMSO to a stock concentration of 10 mM and serially diluted in DMSO and media to their test concentration; the final concentration of DMSO was 0.1% (v/v). Each concentration was tested in triplicate. SW620 cells were incubated with test compound for 24 hours at 37° C., 5% CO2. Media was aspirated from each well, and each well washed with 1 mL ice cold PBS. PBS was then aspirated, and 50 μL of cold lysis buffer (RIPA buffer supplemented with 1× protease inhibitors, Benzonase, MgCl) was added to each well; plates were then incubated on ice for 5 minutes. Cells were scraped using a pipette tip before being transferred to a fresh Eppendorf. Samples were spun at maximum speed in a benchtop centrifuge for 5 minutes at 4° C. and supernatant was then transferred to fresh tubes. Samples were stored at −80° C. until analysis.
# Bicinchonininic acid (BCA) protein assay standards (2-0.125 mg/mL BSA) were prepared in advance. 6 μL of each standard was pipetted in duplicate into rows A and B of a 384-well assay plate. Test samples were diluted in lysis buffer (1:3-1:10) in a 384-well plate in duplicate. BCA Reagents were combined 50:1, Part A:Part B and 50 μL added to each well. Plates were incubated for 30 min at 37° C. in a plate incubator and read using a BCA protein 384 protocol on an EnSpire plate reader. Protein concentrations were calculated from a standard curve.
# JESS Western Blot Protocol
# Protein lysates were prepared using Protein Simple EZ standard pack reagents: 40 μL distilled H2O was added to a DTT tube (clear) and treated with 20 μL 10× sample buffer and 20 μL DTT to 5×MM tube (pink). 20 μL dH2O was added to biotinylated ladder tube (green).
# Test samples were prepared by dilution to the required concentration (0.1 mg/mL) in 0.1× sample buffer. 1.25 μL 5× fluorescent master mix from the EZ standard pack was added to 5 μL sample for each lane to be loaded (e.g. 2.5 μL+10 μL if loading same sample into 2 wells). Samples were vortexed, briefly spun down and heated at 95° C. for 5 min in a PCR machine then vortexed again and briefly spun down before loading onto JESS cassettes (catalogue No: SM-W004) according to manufacturer's instructions (https://www.proteinsimple.com/technical_library.html?product=simplewestern&def_list=list). Protein expression was determined by the peak area of the target protein signal. Peak area of the target protein was normalised to peak area of the loading control (actin) and to DMSO control.
row,Compound,remaining activity at 1 µM [%]
1,"Cc1c(O)cc(O)c(C(=O)N2Cc3ccc(CN4CCC(CC(=O)N5CCN(c6ccc7c(c6)CN(C6CCC(=O)NC6=O)C7=O)CC5)CC4)cc3C2)c1OCC1CCCCC1 (stereo not drawn) [Example 20, 3-(5-(4-(2-(1-((2-(2-(Cyclohexylmethoxy)-4,6-dihydroxy-3-methylbenzoyl)isoindolin-5-yl)methyl)piperidin-4-yl)acetyl)piperazin-1-yl)-1-oxoisoindolin-2-yl)piperidine-2,6-dione]",10 to 25
2,"Cc1c(O)cc(O)c(C(=O)N2Cc3ccc(CN4CCN(CCOCCOCCOCCNc5cccc6c5C(=O)N(C5CCC(=O)NC5=O)C6=O)CC4)cc3C2)c1OCc1ccccc1 (stereo not drawn) [Example 1, 4-((2-(2-(2-(2-(4-((2-(2-(Benzyloxy)-4,6-dihydroxy-3-methylbenzoyl)isoindolin-5-yl)methyl)piperazin-1-yl)ethoxy)ethoxy)ethoxy)ethyl)amino)-2-(2,6-dioxopiperidin-3-yl)isoindoline-1,3-dione]",10 to 25
3,"Cc1c(O)cc(O)c(C(=O)N2Cc3ccc(C(=O)N4CCC(OCCOCCOCCN5CCN(c6cc7c(cc6F)C(=O)N(C6CCC(=O)NC6=O)C7=O)CC5)CC4)cc3C2)c1OCc1ccccc1 (stereo not drawn) [Example 18, 5-(4-(2-(2-(2-((1-(2-(2-(Benzyloxy)-4,6-dihydroxy-3-methylbenzoyl)isoindoline-5-carbonyl)piperidin-4-yl)oxy)ethoxy)ethoxy)ethyl)piperazin-1-yl)-2-(2,6-dioxopiperidin-3-yl)-6-fluoroisoindoline-1,3-dione]",25 to 50
4,"Cc1c(O)cc(O)c(C(=O)N2Cc3ccc(C(=O)N4CCC(CN5CCN(c6ccc7c(c6)CN(C6CCC(=O)NC6=O)C7=O)CC5)CC4)cc3C2)c1OCc1ccccc1 (stereo not drawn) [Example 22, 3-(5-(4-((1-(2-(2-(Benzyloxy)-4,6-dihydroxy-3-methylbenzoyl)isoindoline-5-carbonyl)piperidin-4-yl)methyl)piperazin-1-yl)-1-oxoisoindolin-2-yl)piperidine-2,6-dione]",10 to 25
5,"Cc1c(O)cc(O)c(C(=O)N2Cc3ccc(CN4CCN(CCOCCOCCOCCOc5cccc6c5CN(C5CCC(=O)NC5=O)C6=O)CC4)cc3C2)c1OCc1ccccc1 (stereo not drawn) [Example 14, 3-(4-(2-(2-(2-(2-(4-((2-(2-(Benzyloxy)-4,6-dihydroxy-3-methylbenzoyl)isoindolin-5-yl)methyl)piperazin-1-yl)ethoxy)ethoxy)ethoxy)ethoxy)-1-oxoisoindolin-2-yl)piperidine-2,6-dione]",10 to 25
6,"Cc1ncsc1-c1ccc(CNC(=O)[C@@H]2C[C@@H](O)CN2C(=O)[C@@H](NC(=O)CCCCCCC(=O)N2CCN(Cc3ccc4c(c3)CN(C(=O)c3c(O)cc(O)c(C)c3OCc3ccccc3)C4)CC2)C(C)(C)C)cc1 [Example 25, (2S,4R)-1-[(2S)-2-[[8-[4-[[2-(2-Benzyloxy-4,6-dihydroxy-3-methyl-benzoyl)isoindolin-5-yl]methyl]piperazin-1-yl]-8-oxo-octanoyl]amino]-3,3-dimethyl-butanoyl]-4-hydroxy-N-[[4-(4-methylthiazol-5-yl)phenyl]methyl]pyrrolidine-2-carboxamide]",< 10
7,"Cc1c(O)cc(O)c(C(=O)N2Cc3ccc(CN4CCC(C(=O)N5CCN(c6ccc7c(c6)CN(C6CCC(=O)NC6=O)C7=O)CC5)CC4)cc3C2)c1OCC1CCCCC1 (stereo not drawn) [Example 21, 3-(5-(4-(1-((2-(2-(cyclohexylmethoxy)-4,6-dihydroxy-3-methylbenzoyl)isoindolin-5-yl)methyl)piperidine-4-carbonyl)piperazin-1-yl)-1-oxoisoindolin-2-yl)piperidine-2,6-dione]",10 to 25
8,"Cc1c(O)cc(O)c(C(=O)N2Cc3ccc(CN4CCN(CCOCCOCCOCCNc5ccc6c(c5)CN(C5CCC(=O)NC5=O)C6=O)CC4)cc3C2)c1OCc1ccccc1 (stereo not drawn) [Example 16, 3-(5-((2-(2-(2-(2-(4-((2-(2-(Benzyloxy)-4,6-dihydroxy-3-methylbenzoyl)isoindolin-5-yl)methyl)piperazin-1-yl)ethoxy)ethoxy)ethoxy)ethyl)amino)-1-oxoisoindolin-2-yl)piperidine-2,6-dione]",25 to 50
9,"Cc1ncsc1-c1ccc(CNC(=O)[C@@H]2C[C@@H](O)CN2C(=O)[C@@H](NC(=O)CCCCCCCC(=O)N2CCN(Cc3ccc4c(c3)CN(C(=O)c3c(O)cc(O)c(C)c3OCC3CCCCC3)C4)CC2)C(C)(C)C)cc1 [Example 28, (2S,4R)-1-[(2S)-2-[[9-[4-[[2-[2-(Cyclohexylmethoxy)-4,6-dihydroxy-3-methyl-benzoyl]isoindolin-5-yl]methyl]piperazin-1-yl]-9-oxo-nonanoyl]amino]-3,3-dimethyl-butanoyl]-4-hydroxy-N-[[4-(4-methylthiazol-5-yl)phenyl]methyl]pyrrolidine-2-carboxamide]",< 10
10,"Cc1ncsc1-c1ccc(CNC(=O)[C@@H]2C[C@@H](O)CN2C(=O)[C@@H](NC(=O)CCCCCCCCCC(=O)N2CCN(Cc3ccc4c(c3)CN(C(=O)c3c(O)cc(O)c(C)c3OCc3ccccc3)C4)CC2)C(C)(C)C)cc1 [Example 24, (2S,4R)-1-((S)-2-(11-(4-((2-(2-(Benzyloxy)-4,6-dihydroxy-3-methylbenzoyl)isoindolin-5-yl)methyl)piperazin-1-yl)-11-oxoundecanamino)-3,3-dimethylbutanoyl)-4-hydroxy-N-(4-(4-methylthiazol-5-yl)benzyl) pyrrolidine-2-carboxamide]",< 10
11,"Cc1c(O)cc(O)c(C(=O)N2Cc3ccc(CN4CCN(CCOCCOCCOCCOCCNc5ccc6c(c5)C(=O)N(C5CCC(=O)NC5=O)C6=O)CC4)cc3C2)c1OCc1ccccc1 (stereo not drawn) [Example 19, 5-[2-[2-[2-[2-[2-[4-[[2-(2-Benzyloxy-4,6-dihydroxy-3-methyl-benzoyl)isoindolin-5-yl]methyl]piperazin-1-yl]ethoxy]ethoxy]ethoxy]ethoxy]ethylamino]-2-(2,6-dioxo-3-piperidyl)isoindoline-1,3-dione]",< 10
12,"Cc1c(O)cc(O)c(C(=O)N2Cc3ccc(CN4CCN(CCOCCOCCOCCOc5cccc6c5C(=O)N(C5CCC(=O)NC5=O)C6=O)CC4)cc3C2)c1OCc1ccccc1 (stereo not drawn) [Example 9, 4-(2-(2-(2-(2-(4-((2-(2-(Benzyloxy)-4,6-dihydroxy-3-methylbenzoyl)isoindolin-5-yl)methyl)piperazin-1-yl)ethoxy)ethoxy)ethoxy)ethoxy)-2-(2,6-dioxopiperidin-3-yl)isoindoline-1,3-dione]",10 to 25
